For assay [1], the system named is recombinant human Bcl-2-G101V protein. Put plainly: Bcl-2-G101V TR-FRET Assay. In kind it is binding. The following applies: for Ratio of Bcl-2 G101V/WT: ratio of biochemical IC50 Bcl-2 G101V / Bcl-2 WT; for ratio of IC50 of Bcl-2 G101V/Bcl-2 wt, compared with Example F132b in WO2019210828 and ABT-199 (venetoclax): comparison in words. Put shortly: (§1)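 TR-FRET read at excitation 337 nm with emission at 490 nm and 520 nm. Inhibition of Bcl-2-G101V binding to its ligand across increasing compound concentrations was calculated from the 490/520 nm fluorescence ratio, and IC50 values came from four-parameter logistic fits.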
(Time-resolved FRET reads energy transfer from a long-lived donor to a nearby acceptor.)

For assay [2], the target named is recombinant human Bcl-2-G101V protein (Homo sapiens (Human), UniProt P10415, G101V). Put plainly: Bcl-2-G101V TR-FRET Assay. In kind it is binding. The following applies: Bcl-2 G101V mutant, TR-FRET; read-out: Biochemical assay (IC50, nM) Bcl-2 G101V. A digest of the protocol:
as §1

Assay [3] concerns BCL-2 G101V knock-in cell line H96 (derive from RS4;11). Put plainly: Bcl 2-G101V Knock-In RS4;11 Cell Proliferation Assay. In kind it is cell-based. The following applies: Homo sapiens, RS4-11, 48 h, RS4;11 Bcl-2 G101V knock-in clone H96, 48 hrs, CellTiter-GLO, read-out: Cellular proliferation assay (IC50, nM) RS4. Put shortly:
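H96, a CRISPR-generated RS4;11 clone carrying BCL2-G101V knock-in (WES/RNA-seq validated), seeded 50,000 per well and exposed 48 h at 37 °C to 10-point dilutions topping at 1 or 10 μM. Viability by CellTiter-Glo luminescence; mean IC50.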
Background: Cellular ATP, detected with luciferase, serves as a proxy for viable cell number.

Assay [4] deals with RS4;11 (BCL-2 dependent acute lymphoblastic leukemia cell line). Put plainly: RS4;11 Cell Proliferation Assay. The settings on record: Homo sapiens, RS4;11 cells, read-out: Cellular proliferation assay (IC50, nM) RS4. In kind it is cell-based. A digest of the protocol:
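RS4;11 cells, 50,000 per well in RPMI-1640 with 10% FBS, treated 48 h at 37 °C with a 10-point dilution series topping at 1 μM. Viability read by CellTiter-Glo ATP luminescence; mean IC50 reported.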

In the case of `COc1cc(CN2CCN(C3CC4(C3)CN(c3ccc(C(=O)NS(=O)(=O)c5ccc(NC[C@H]6CC[C@](C)(O)CC6)c([N+](=O)[O-])c5)c(Oc5cnc6[nH]cc(F)c6c5)c3)C4)[C@H](c3ccccc3C(C)C)C2)ccc1N1CCOCC1` [Example 361, 2-((3-fluoro-1H-pyrrolo[2,3-b]pyridin-5-yl)oxy)-N-((4-((((1r,4r)-4-hydroxy-4-methylcyclohexyl)methyl)amino)-3-nitrophenyl)sulfonyl)-4-(6-((R)-2-(2-isopropylphenyl)-4-(3-methoxy-4-morpholinobenzyl)piperazin-1-yl)-2-azaspiro[3.3]heptan-2-yl) benzamide], the “Ratio of Bcl-2 G101V/WT” value in assay [1] is 3.1. Moreover, the IC50 in assay [2] was determined as 0.16 nM; in assay [3], 0.13 nM; in assay [4] it was 0.09 nM.

Take `CC(C)c1ccccc1C1CN(Cc2ccc(C(F)(F)F)cc2)CCN1C1CC2(CCN(c3ccc(C(=O)NS(=O)(=O)c4ccc(NC[C@H]5CC[C@](C)(O)CC5)c([N+](=O)[O-])c4)c(Oc4cnc5[nH]ccc5c4)c3)CC2)C1` (stereo partly shown) [Example 41, 2-((1H-pyrrolo[2,3-b]pyridin-5-yl)oxy)-N-((4-((((1r,4r)-4-hydroxy-4-methylcyclohexyl)methyl)amino)-3-nitrophenyl)sulfonyl)-4-(2-(2-(2-isopropylphenyl)-4-(4-(trifluoromethyl)benzyl)piperazin-1-yl)-7-azaspiro[3.5]nonan-7-yl) benzamide]: the “Ratio of Bcl-2 G101V/WT” value in assay [1] was found to be 4.6. Moreover, the IC50 was determined as 3.8 nM in assay [2], 7.2 nM in assay [3] and 0.74 nM in assay [4].

Consider `CC(C)c1ccccc1C1CN(Cc2ccc(Cl)cc2)CCN1C1CC2(CCN(c3ccc(C(=O)NS(=O)(=O)c4ccc(NC[C@H]5CC[C@](C)(O)CC5)c([N+](=O)[O-])c4)c(Oc4cnc5[nH]ccc5c4)c3)CC2)C1` (stereo partly shown) [Example 29, 2-((1H-pyrrolo[2,3-b]pyridin-5-yl)oxy)-4-(2-(4-(4-chlorobenzyl)-2-(2-isopropylphenyl)piperazin-1-yl)-7-azaspiro[3.5]nonan-7-yl)-N-((4-((((1r,4r)-4-hydroxy-4-methylcyclohexyl)methyl)amino)-3-nitrophenyl)sulfonyl)benzamide], for which the “Ratio of Bcl-2 G101V/WT” value in assay [1] is 5.2. Besides, the values for the IC50 in assay [2], in assay [3] and in assay [4] were 1.5 nM, 2.95 nM and 0.43 nM, respectively.

Turning to `COc1cc(CN2CCN(C3CC4(C3)CN(c3ccc(C(=O)NS(=O)(=O)c5ccc(NC[C@H]6CC[C@](C)(O)CC6)c([N+](=O)[O-])c5)c(Oc5cnc6[nH]cc(F)c6c5)c3)C4)[C@H](c3ccccc3C(C)C)C2)ccc1C1CC1` [Example 232, 4-(6-((R)-4-(4-cyclopropyl-3-methoxybenzyl)-2-(2-isopropylphenyl)piperazin-1-yl)-2-azaspiro[3.3]heptan-2-yl)-2-((3-fluoro-1H-pyrrolo[2,3-b]pyridin-5-yl)oxy)-N-((4-((((1r,4r)-4-hydroxy-4-methylcyclohexyl)methyl)amino)-3-nitrophenyl)sulfonyl)benzamide], the “ratio of IC50 of Bcl-2 G101V/Bcl-2 wt, compared with Example F132b in WO2019210828 and ABT-199 (venetoclax)” value in assay [1] is reported as “much lower”. The “Ratio of Bcl-2 G101V/WT” value in assay [1] came to 1.8. In addition, the IC50 in assay [2] was 1.3 nM; in assay [3], 0.19 nM; in assay [4], 0.13 nM.

For the molecule `CC(C)c1ccccc1C1CN(Cc2ccc(F)cc2)CCN1C1CC2(CCN(c3ccc(C(=O)NS(=O)(=O)c4ccc(NC[C@H]5CC[C@](C)(O)CC5)c([N+](=O)[O-])c4)c(Oc4cnc5[nH]ccc5c4)c3)CC2)C1` (stereo partly shown) [Example 28, 2-((1H-pyrrolo[2,3-b]pyridin-5-yl)oxy)-4-(2-(4-(4-fluorobenzyl)-2-(2-isopropylphenyl)piperazin-1-yl)-7-azaspiro[3.5]nonan-7-yl)-N-((4-((((1r,4r)-4-hydroxy-4-methylcyclohexyl)methyl)amino)-3-nitrophenyl)sulfonyl)benzamide], the “Ratio of Bcl-2 G101V/WT” value in assay [1] is reported as 3.6. In addition, the IC50 in assay [2] is 0.82 nM; in assay [3] it was 2.69 nM; in assay [4] it was 0.39 nM.

Regarding `COc1cc(CN2CCN(C3CC4(C3)CN(c3ccc(C(=O)NS(=O)(=O)c5ccc(NC[C@H]6CC[C@](C)(O)CC6)c([N+](=O)[O-])c5)c(Oc5cnc6[nH]cc(F)c6c5)c3)C4)[C@H](c3ccccc3C(C)C)C2)cc2c1OCCC2` [Example 312, 2-((3-fluoro-1H-pyrrolo[2,3-b]pyridin-5-yl)oxy)-N-((4-((((1r,4r)-4-hydroxy-4-methylcyclohexyl)methyl)amino)-3-nitrophenyl)sulfonyl)-4-(6-((R)-2-(2-isopropylphenyl)-4-((8-methoxychroman-6-yl)methyl)piperazin-1-yl)-2-azaspiro[3.3]heptan-2-yl)benzamide], in assay [1], the “Ratio of Bcl-2 G101V/WT” value turned out to be 2.9. Also, the IC50 in assay [2] was 0.27 nM; in assay [3], 0.3 nM; in assay [4], 0.27 nM.

For the molecule `COc1cc(CN2CCN(C3CC4(C3)CN(c3ccc(C(=O)NS(=O)(=O)c5ccc(NC[C@H]6CC[C@](C)(O)CC6)c([N+](=O)[O-])c5)c(Oc5cnc6[nH]cc(F)c6c5)c3)C4)[C@H](c3ccccc3C(C)C)C2)cc2cc(C)oc12` [Example 338, 2-((3-fluoro-1H-pyrrolo[2,3-b]pyridin-5-yl)oxy)-N-((4-((((1r,4r)-4-hydroxy-4-methylcyclohexyl)methyl)amino)-3-nitrophenyl)sulfonyl)-4-(6-((R)-2-(2-isopropylphenyl)-4-((7-methoxy-2-methylbenzofuran-5-yl)methyl)piperazin-1-yl)-2-azaspiro[3.3]heptan-2-yl)benzamide], the “ratio of IC50 of Bcl-2 G101V/Bcl-2 wt, compared with Example F132b in WO2019210828 and ABT-199 (venetoclax)” value in assay [1] is on record as “much lower”. Also, the “Ratio of Bcl-2 G101V/WT” value in assay [1] is recorded as 2.3. The IC50 in assay [2] came out at 1.4 nM; in assay [3], 0.15 nM; in assay [4], 0.11 nM.

For `COc1ccc(CN2CCN(C3CC4(CCN(c5ccc(C(=O)NS(=O)(=O)c6ccc(NC[C@H]7CC[C@](C)(O)CC7)c([N+](=O)[O-])c6)c(Oc6cnc7[nH]ccc7c6)c5)CC4)C3)C(c3ccccc3C(C)C)C2)c(OC)c1` (stereo partly shown) [Example 48], the “Ratio of Bcl-2 G101V/WT” value in assay [1] is given as 4.6. Further, the results for the IC50 in assay [2], in assay [3] and in assay [4] were 0.33 nM, 1.9 nM and 0.43 nM, respectively.

Regarding `CC(C)c1ccccc1[C@@H]1CN(Cc2cccc3c2OCCO3)CCN1C1CC2(CCN(c3ccc(C(=O)NS(=O)(=O)c4ccc(NC[C@H]5CC[C@](C)(O)CC5)c([N+](=O)[O-])c4)c(Oc4cnc5[nH]ccc5c4)c3)CC2)C1` [Example 79a, 2-((1H-pyrrolo[2,3-b]pyridin-5-yl)oxy)-4-(2-(R-4-((2,3-dihydrobenzo [b][1,4]dioxin-5-yl)methyl)-2-(2-isopropylphenyl)piperazin-1-yl)-7-azaspiro[3.5]nonan-7-yl)-N-((4-((((1r,4r)-4-hydroxy-4-methylcyclohexyl)methyl)amino)-3-nitrophenyl)sulfonyl)benzamide], in assay [1], the “Ratio of Bcl-2 G101V/WT” value was 2.4. The IC50 was found to be 0.25 nM in assay [2], 0.48 nM in assay [3] and 0.104 nM in assay [4].

With `COc1cc(CN2CCN(C3CC4(C3)CN(c3ccc(C(=O)NS(=O)(=O)c5ccc(NC[C@H]6CC[C@](C)(O)CC6)c([N+](=O)[O-])c5)c(Oc5cnc6[nH]cc(F)c6c5)c3)C4)[C@H](c3ccccc3C(C)C)C2)cc(F)c1OC` [Example 230, 2-((3-fluoro-1H-pyrrolo[2,3-b]pyridin-5-yl)oxy)-4-(6-((R)-4-(3-fluoro-4,5-dimethoxybenzyl)-2-(2-isopropylphenyl)piperazin-1-yl)-2-azaspiro[3.3]heptan-2-yl)-N-((4-((((1r,4r)-4-hydroxy-4-methylcyclohexyl)methyl)amino)-3-nitrophenyl)sulfonyl)benzamide], the “Ratio of Bcl-2 G101V/WT” value in assay [1] was 2.8. Besides, the figures for the IC50 in assay [2], in assay [3] and in assay [4] were 0.52 nM, 0.28 nM and 0.1 nM, respectively.

On to `[2H]C([2H])([2H])Oc1ccc(CN2CCN(C3CC4(CCN(c5ccc(C(=O)NS(=O)(=O)c6ccc(NC[C@H]7CC[C@](C)(O)CC7)c([N+](=O)[O-])c6)c(Oc6cnc7[nH]cc(F)c7c6)c5)CC4)C3)[C@H](c3ccccc3C(C)C)C2)cc1OC([2H])([2H])[2H]` [Example 198, 4-(2-((R)-4-(3,4-bis(methoxy-d3)benzyl)-2-(2-isopropylphenyl)piperazin-1-yl)-7-azaspiro[3.5]nonan-7-yl)-2-((3-fluoro-1H-pyrrolo[2,3-b]pyridin-5-yl)oxy)-N-((4-((((1r,4r)-4-hydroxy-4-methylcyclohexyl)methyl)amino)-3-nitrophenyl)sulfonyl)benzamide], for which, in assay [1], the “Ratio of Bcl-2 G101V/WT” value is 2.4. In addition, the IC50 in assay [2] came out at 0.17 nM; in assay [3], 0.27 nM; in assay [4], 0.12 nM.
